pEC50, pIC50: −log10 of the molar value. Where “and” joins values, the source holds several entries; their conditions need not be identical. Identical values can stand only once. Like-named read-outs stand apart in the source and are kept apart here.
Legend:
[1] = tested on: uterine horns from wild-type (WT) C57BL/6J female mice; assay: Spontaneous uterine contractility, isolated uterine horns in tissue organ bath; conditions: for Spontaneous contractile force compared with the vehicle control (in words) / Spontaneous uterine contraction frequency compared to vehicle control (in words) / Contractile Frequency/10 min (% of baseline), Drug / Contractile Force (% of baseline), Drug: maximal treatment dose; for Contractile Frequency/10 min (% of baseline), Drug / Contractile Force (% of baseline), Drug: spontaneous contractility; for Contractile Force (% of baseline), Drug: AUC as % of baseline AUC; for pIC50: spontaneous, dose-response 10^-9 to 10^-6 mol/L
Method: (§1) FIGS. 2A & 2B are representative contraction tracings of uterine horns from wild-type (WT) C57BL/6J female mice. FIG. 2A: Uterine horns were isolated and suspended in a tissue organ bath at 0.5 g of tension. Once equilibrated, selected progestin treatments were added in successively increasing concentrations from 10^−9 to 10^−6 mol/L in 20-minute intervals to assess effect on spontaneous contractile activity (progesterone treatment, bottom panel). The contralateral horn from each mouse was treated with a matching ethanol vehicle (top panel). All contraction responses were measured and reported as the area under the contraction curve (AUC), normalized to the AUC of the spontaneous contraction pattern that preceded treatment. FIG. 2B: Treatment effect on oxytocin-induced contractility was assessed by exposing horns to selected progestin treatments (10^−6 mol/L), followed by increasing doses of oxytocin (Oxt) (1, 10, 50, and 100 nmol/L) in 10-minute intervals (bottom panel). The contralateral horn from each mouse was treated with a matching ethanol vehicle (top panel). Contraction responses were measured and reported as described above.
(§2) All progestins were solubilized in ethanol and then diluted in phosphate-buffered saline to the desired molar concentration. […] The concentration of ethanol decreased parallel to the progestin dose in order to minimize the effect of the solvent on uterine contractility.
(§3) Virgin nonpregnant wild-type C57BL/6J female mice (Jackson Labs, Bar Harbor, Me.) were obtained at 10 to 12 weeks of age and fed a standard diet. Mice were euthanized by an IACUC-approved protocol, and each of the 2 uterine horns were removed. A 1 cm×0.5 cm segment of the uterine horn was suspended using 4-0 silk suture between a stainless steel wire hook connected to a Radnoti force displacement transducer (Radnoti LLC, Monrovia, Calif.) and a glass hook inside an organ bath that served as an anchor. The bath was filled with modified Krebs buffer (118 mmol/L NaCl, […], 1.2 mmol/L MgSO4, 1.2 mmol/L KH2PO4, 2.5 mmol/L CaCl2, 25 mmol/L NaHCO3, and 11 mmol/L glucose, pH 7.4), maintained at 37° C., and constantly bubbled with a premixed gas consisting of 20% O2, 5% CO2, and balance N2. Uterine horns were equilibrated at 0.5 g of tension for approximately 30 minutes until a spontaneous contraction pattern was established.
A total of 60 mice were utilized to assess the effect of the selected treatments on uterine contractility, 30 in the spontaneous contraction group and 30 in the oxytocin-induced group. Six mice were in each progestin treatment group during both spontaneous and oxytocin-induced contractility arms of the study. To determine the nongenomic (acute) effect of the progestin treatments on spontaneous uterine contractility, a segment of uterine horn from each mouse was exposed to a single progestin (progesterone, 17-OHPC, 2α-OHP, 6β-OHP, or 16αOHP), while a segment of the contralateral horn was exposed to a matching dose of ethanol vehicle. After a spontaneous contraction pattern was achieved, the progestin treatment was added to the tissue organ bath in successively increasing concentrations from 10^−9 to 10^−6 mol/L in 20-minute intervals. At the end of the treatments, the tissue was washed in modified Krebs buffer and then exposed to KCl (60 mmol/L) to elicit a tetanic response and confirm tissue viability.
Uterine contraction responses were recorded using LabChart Pro (ADInstruments, Colorado Springs, Colo.) software as the force generated with time (g×min). Baseline uterine contractility was calculated as the area under the curve (AUC) for a 10-minute period of spontaneous contractions. The AUC of the uterine contractile response to each treatment (progestin or oxytocin) was determined and expressed as a percentage of the baseline AUC observed during spontaneous contraction. […]

[2] = tested on: uterine horns from wild-type (WT) C57BL/6J female mice; assay: Oxytocin-induced uterine contractility after progestin pretreatment, isolated uterine horns in tissue organ bath; conditions: for Oxytocin-induced contractile force compared to vehicle control (in words) / Oxytocin-induced contraction frequency compared to control (in words) / Contractile Force (% of baseline), Drug / Contractile Frequency/10 min (% of baseline), Drug: maximal oxytocin dose (100 nmol/L); for pEC50: oxytocin-induced dose-response (1-100 nmol/L oxytocin) after progestin pretreatment 10^-6 mol/L; for Contractile Force (% of baseline), Drug / Contractile Frequency/10 min (% of baseline), Drug: oxytocin-induced, progestin pretreatment 10^-6 mol/L
Method: as §1, §2, §3
To determine the nongenomic effect of progestin treatments on oxytocin-induced uterine contractility, the uterine horns were pretreated with a single progestin at 10^−6 mol/L for 10 minutes after a spontaneous contractile pattern was established. The contralateral horn from the same mouse was treated with ethanol vehicle at a matching concentration. The uterine horns were subsequently exposed to increasing concentrations of oxytocin (1, 10, 50, and 100 nmol/L) in 10-minute intervals. At the end of the oxytocin treatments, the tissue was washed and then exposed to KCl (60 mmol/L) to elicit a tetanic response and confirm tissue viability.
Uterine contraction responses were recorded using LabChart Pro (ADInstruments, Colorado Springs, Colo.) software as the force generated with time (g×min). Baseline uterine contractility was calculated as the area under the curve (AUC) for a 10-minute period of spontaneous contractions. The AUC of the uterine contractile response to each treatment (progestin or oxytocin) was determined and expressed as a percentage of the baseline AUC observed during spontaneous contraction. […] To account for repeated measurements for individual muscle strips at increasing treatment doses, a repeated measures 2-way analysis of variance model was used to compare the dose-response curves. Each dose-response curve was fit by nonlinear regression and compared using an extra sum of squares F test. The mean max-fit response was compared between each progestin and vehicle control to determine maximum treatment efficacy. […]

[3] = tested on: primary uterine smooth muscle cells (UtSMC); assay: IL-6 production in UtSMC stimulated with LPS; assay type: cell-based; conditions: for IL-6 / IL-6, % of positive control: UtSMC pre-treated, then LPS; for IL-6: LPS positive control 121.7 pg/mL; for IL-6, % of positive control: relative to DMSO+LPS positive control
Method: In this Example, the effect of progesterone metabolites 16αOHP and 6β-OHP on inflammation in primary uterine smooth muscle cells (UtSMC) was analyzed.
UtSMC were cultured in the presence of DMSO and one of the following: (1) progesterone; (2) […]; (3) 6β-OHP; and (4) 16αOHP. Lipopolysaccharide (LPS) was then added to the culture to stimulate an immune inflammatory reaction. Experiments were performed in triplicate.

[4] = tested on: primary uterine smooth muscle cells (UtSMC); assay: IL-6 production in UtSMC stimulated with TNF-α; assay type: cell-based
Source text: FIGS. 5A & 5B are graphs depicting the effect of progesterone metabolites 16αOHP and 6β-OHP on inflammation in primary uterine smooth muscle cells (UtSMC).

THP-1 monocyte cells = assay: Flow cytometry of monocyte-derived macrophage population (PMA differentiation); assay type: cell-based; conditions: THP-1 pre-treated 24 hours, then PMA
Method: FIGS. 6A-6C depict flow cytometry of a monocyte-derived macrophage population pre-treated with progesterone metabolites. THP-1 monocyte cells were pre-treated with progesterone metabolites 16αOHP and 6β-OHP for 24 hours, then stimulated to differentiate to macrophages by exposure to PMA.
THP-1 monocyte cells were pre-treated with progesterone metabolites 16αOHP and 6β-OHP for 24 hours, then stimulated to differentiate to macrophages by exposure to phorbol 12-myristate 13-acetate (PMA).

THP-1 monocytes = assay: IL-6 production in THP-1 monocytes stimulated with LPS; assay type: cell-based; conditions: THP-1 monocytes pretreated, then LPS; versus positive control
Method: FIG. 9 is a graph depicting the effect of progesterone and progesterone metabolites (16αOHP and 6β-OHP) on inflammation in THP-1 monocytes stimulated with LPS.
In this Example, the effect of progesterone and progesterone metabolites (16αOHP and 6β-OHP) on inflammation in THP-1 monocytes stimulated with LPS was analyzed.

[5] = tested on: monocyte-derived macrophage populations; assay: Macrophage cell surface marker expression of monocyte-derived macrophages; assay type: cell-based; conditions: relative to DMSO treated control
Source text: FIG. 7 is a graph depicting characterization of monocyte-derived macrophage populations after pre-treatment with progesterone and progesterone metabolites. Expression of macrophage cell surface markers is illustrated relative to DMSO treated control.
In this Example, monocyte-derived macrophage populations after pre-treatment with progesterone and progesterone metabolites were characterized.
Expression of macrophage cell surface markers is illustrated relative to DMSO treated control (see FIG. 7).

NF-κB pathway = NF-κB pathway activation in THP-1 monocytes stimulated with LPS (imaging flow cytometry); assay type: cell-based; conditions: THP-1 monocytes pre-treated, then LPS
Method: FIGS. 8A-8B depicts the summary of NF-κB pathway activation in THP-1 monocytes stimulated with LPS after pre-treatment with progesterone and progesterone metabolites. […] In this Example, the effect of progesterone metabolites on the LPS-induced inflammatory response in monocytes was analyzed. Particularly, NF-κB pathway activation in THP-1 monocytes stimulated with LPS after pre-treatment with progesterone and progesterone metabolites was analyzed.

[6] = read-out: Contractile Force IC50
[7] = read-out: Contractile Frequency IC50
[8] = read-out: Contractile Force EC50
[9] = read-out: Contractile Frequency EC50
[10] = Mus musculus, read-out: Contractile Force IC50
[11] = Mus musculus, read-out: Contractile Frequency IC50
[12] = Mus musculus, read-out: Contractile Force EC50
[13] = Mus musculus, read-out: Contractile Frequency EC50

Row | SMILES | Spontaneous contractile force compared with the vehicle control (in words) [1] | Spontaneous uterine contraction frequency compared to vehicle control (in words) [1] | Contractile Frequency/10 min (% of baseline), Drug [1] | Contractile Force (% of baseline), Drug [1] | pIC50 [1, 6] | pIC50 [1, 7] | Oxytocin-induced contractile force compared to vehicle control (in words) [2] | Oxytocin-induced contraction frequency compared to control (in words) [2] | pEC50 [2, 8] | pEC50 [2, 9] | Contractile Force (% of baseline), Drug [2] | Contractile Frequency/10 min (% of baseline), Drug [2] | IL-6 [3] | IL-6, % of positive control [3] | pIC50 [1, 10] | pIC50 [1, 11] | pEC50 [2, 12] | pEC50 [2, 13] | other results
1 | CC(=O)[C@H]1CC[C@H]2[C@@H]3CCC4=CC(=O)[C@H](O)C[C@]4(C)[C@H]3CC[C@]12C [2α-OHP, 4-pregnen-2α-ol-3,20-dione] | No significant difference | not significantly decreased | 53.7% of baseline | 37.9% of baseline | 9.49 | 9.26 | no differences | not | 7.17 | 6.19 | 329.5% of baseline | 168.9% of baseline |  |  |  |  |  |  | 
2 | CC(=O)[C@H]1[C@H](O)C[C@H]2[C@@H]3CCC4=CC(=O)CC[C@]4(C)[C@H]3CC[C@@]21C [16α-OHP, 4-pregnen-16α-ol-3,20-dione] | No significant difference | not significantly decreased | 57% of baseline | 37.2% of baseline | 9.11 | 9.13 | no differences | decreased significantly | 6.85 | 8.07 | 301.6% of baseline | 216.9% of baseline | 98.7 pg/mL | 83% |  |  |  |  | Effect on oxytocin-induced uterine contractility (in words) [2]: decreased; Contractile Frequency/10 min (% of baseline), Drug ([2]; listed as 16αOHP): 217 % of baseline; IL-6 production (in words) ([3]; UtSMC stimulated with LPS): reduced IL-6 production; IL-6 production (in words) [4]: decreased IL-6 production; Macrophage population/phenotype compared to DMSO treated control (in words) (THP-1 monocyte cells): decrease in the macrophage population/phenotype; Inflammatory response (IL-6 production) (in words) (THP-1 monocytes): significantly decreased IL-6 production
3 | CCCCCC(=O)O[C@]1(C(C)=O)CC[C@H]2[C@@H]3CCC4=CC(=O)CC[C@]4(C)[C@H]3CC[C@@]21C [17-OHPC, 4-pregnen-17-ol-3,20-dione caproate, reference compound] | No significant difference | not significantly decreased | 57.9% of baseline | 50.4% of baseline |  |  |  | decreased significantly |  |  | 218.4 % of baseline | 130 % of baseline and 130.2% of baseline |  |  | 9.11 | 9.51 | 8.07 | 8.49 | 
4 | C[C@]12CC[C@@H]3c4ccc(O)cc4CC[C@H]3[C@@H]1CC[C@@H]2O [E2, reference compound] |  |  |  |  |  |  |  |  |  |  |  |  | 126 pg/mL | 103% |  |  |  |  | 
5 | CC(=O)[C@H]1CC[C@H]2[C@@H]3CCC4=CC(=O)CC[C@]4(C)[C@H]3CC[C@]12C [Progesterone] |  | not significantly decreased | 48% of baseline | 43.9% of baseline |  |  |  | decreased significantly |  |  | 266.8% of baseline | 141% of baseline | 100.3 pg/mL | 83% | 9.51 | 8.18 | 8.01 | 7.95 | Contractile Force (% of baseline), Drug ([1]; listed as progesterone): 43.9 % of baseline; Contractile Force (% of baseline), Drug ([2]; listed as progesterone): 266.8 % of baseline; Contractile Frequency/10 min (% of baseline), Drug ([2]; listed as progesterone): 141 % of baseline; Expression of cell surface markers involved in immune response (CD14, TLR4, and HLA-DR) (in words) [5]: decreased expression; Median similarity score (NF-κB migration into the nucleus) (in words) (NF-κB pathway): did not affect the median similarity score
